Laboratory results: ChEMBL document CHEMBL1201862, “PubChem BioAssay data set” (2004)
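Test compounds were applied to cells in 96-well plates for 48 hours at 5 doses. GI50 = concentration required for 50% inhibition of growth.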 The source made the active and inactive calls. Rule as the data show it: active = GI50 up to about 1.1 µM and inactive = higher.

Experiments:
Experiment in all cases: inhibition of tumour cell growth, NCI panel, 48 h
786-0 = tested on: 786-0
A498 = tested on: A498
A549 = tested on: A549
ACHN = tested on: ACHN
BT-549 = tested on: BT-549
CAKI-1 = tested on: CAKI-1
CCRF-CEM = tested on: CCRF-CEM
COLO 205 = tested on: COLO 205
DLD-1 = tested on: DLD-1
DMS-114 = tested on: DMS-114
DMS-273 = tested on: DMS-273
DU-145 = tested on: DU-145
EKVX = tested on: EKVX
HCC 2998 = tested on: HCC 2998
HCT-116 = tested on: HCT-116
HCT-15 = tested on: HCT-15
HL-60 = tested on: HL-60
HOP-18 = tested on: HOP-18
HOP-62 = tested on: HOP-62
HOP-92 = tested on: HOP-92
HT-29 = tested on: HT-29
Hs-578T = tested on: Hs-578T
IGROV-1 = tested on: IGROV-1
K562 = tested on: K562
KM-20L2 = tested on: KM-20L2
KM12 = tested on: KM12
LOX IMVI = tested on: LOX IMVI
LXFL 529 = tested on: LXFL 529
M14 = tested on: M14
M19-MEL = tested on: M19-MEL
MCF7 = tested on: MCF7
MDA-MB-231 = tested on: MDA-MB-231
MDA-MB-435 = tested on: MDA-MB-435
MDA-N = tested on: MDA-N
MOLT-4 = tested on: MOLT-4
Malme-3M = tested on: Malme-3M
NCI-H226 = tested on: NCI-H226
NCI-H23 = tested on: NCI-H23
NCI-H460 = tested on: NCI-H460
NCI-H522 = tested on: NCI-H522
NCI/ADR-RES = tested on: NCI/ADR-RES
OVCAR-3 = tested on: OVCAR-3
OVCAR-4 = tested on: OVCAR-4
OVCAR-5 = tested on: OVCAR-5
OVCAR-8 = tested on: OVCAR-8
PC-3 = tested on: PC-3
RPMI-8226 = tested on: RPMI-8226
RXF 393 = tested on: RXF 393
RXF 631 = tested on: RXF 631
SF-268 = tested on: SF-268
SF-295 = tested on: SF-295
SF-539 = tested on: SF-539
SK-MEL-28 = tested on: SK-MEL-28
SK-MEL-2 = tested on: SK-MEL-2
SK-MEL-5 = tested on: SK-MEL-5
SK-OV-3 = tested on: SK-OV-3
SN12C = tested on: SN12C
SNB-19 = tested on: SNB-19
SNB-75 = tested on: SNB-75
SNB-78 = tested on: SNB-78
SR = tested on: SR
SW-620 = tested on: SW-620
T47D = tested on: T47D
TK-10 = tested on: TK-10
U-251 = tested on: U-251
UACC-257 = tested on: UACC-257
UACC-62 = tested on: UACC-62
UO-31 = tested on: UO-31
XF498 = tested on: XF498

For `C=C(C)c1nc(Oc2ccccc2)nc(Oc2ccccc2)n1`, the GI50 (786-0) was 4.58 µM (inactive), the GI50 (A498) was 17.3 µM (inactive) and the GI50 (A549) was 19.5 µM (inactive). For the same molecule, the GI50 (ACHN) was 8.63 µM (inactive), the GI50 (BT-549) was 3.32 µM (inactive) and the GI50 (CAKI-1) was 2.06 µM (inactive). The GI50 (CCRF-CEM) was 2.54 µM (inactive), the GI50 (COLO 205) was 5.42 µM (inactive) and the GI50 (DLD-1) was 2.72 µM (inactive). For the same molecule, the GI50 (DMS-114) was 3.01 µM (inactive), the GI50 (DMS-273) was 6.43 µM (inactive) and the GI50 (DU-145) was 16.5 µM (inactive). The GI50 (EKVX) was 13.6 µM (inactive), the GI50 (HCC 2998) was 3.99 µM (inactive) and the GI50 (HCT-116) was 3.53 µM (inactive). For the same molecule, the GI50 (HCT-15) was 2.81 µM, the GI50 (HL-60) was 2.06 µM (inactive) and the GI50 (HOP-18) was 16.6 µM (inactive). The GI50 (HOP-62) was 16.1 µM (inactive), the GI50 (HOP-92) was 4.93 µM (inactive) and the GI50 (HT-29) was 3.99 µM (inactive). For the same molecule, the GI50 (Hs-578T) was 4.49 µM (inactive), the GI50 (IGROV-1) was 9.38 µM (inactive) and the GI50 (K562) was 2.23 µM (inactive). The GI50 (KM-20L2) was 9.98 µM (inactive), the GI50 (KM12) was 3.09 µM (inactive) and the GI50 (LOX IMVI) was 2.08 µM (inactive). For the same molecule, the GI50 (LXFL 529) was 2 µM (inactive), the GI50 (M14) was 5.42 µM (inactive) and the GI50 (M19-MEL) was 2.88 µM (inactive). For the same molecule, the GI50 (MCF7) was 3.08 µM (inactive), the GI50 (MDA-MB-231) was 14.1 µM (inactive) and the GI50 (MDA-MB-435) was 10.3 µM (inactive). The GI50 (MDA-N) was 3.5 µM (inactive), the GI50 (MOLT-4) was 0.664 µM (active) and the GI50 (Malme-3M) was 13.9 µM (inactive). The GI50 (NCI-H226) was 19.9 µM (inactive), the GI50 (NCI-H23) was 6.64 µM (inactive) and the GI50 (NCI-H460) was 9.04 µM (inactive). For the same molecule, the GI50 (NCI-H522) was 1.16 µM (inactive), the GI50 (NCI/ADR-RES) was 10.9 µM (inactive) and the GI50 (OVCAR-3) was 6.04 µM (inactive). The GI50 (OVCAR-4) was 11.2 µM (inactive), the GI50 (OVCAR-5) was 16.6 µM (inactive) and the GI50 (OVCAR-8) was 4.8 µM (inactive). For the same molecule, the GI50 (PC-3) was 14.6 µM (inactive), the GI50 (RPMI-8226) was 1.57 µM (inactive) and the GI50 (RXF 393) was 2.4 µM (inactive). For the same molecule, the GI50 (RXF 631) was 3.69 µM (inactive), the GI50 (SF-268) was 4.79 µM (inactive) and the GI50 (SF-295) was 14.9 µM (inactive). For the same molecule, the GI50 (SF-539) was 6.37 µM (inactive), the GI50 (SK-MEL-28) was 3.86 µM (inactive) and the GI50 (SK-MEL-2) was 2.21 µM (inactive). For the same molecule, the GI50 (SK-MEL-5) was 13.7 µM (inactive), the GI50 (SK-OV-3) was 17.6 µM (inactive) and the GI50 (SN12C) was 5.6 µM (inactive). The GI50 (SNB-19) was 9.33 µM (inactive), the GI50 (SNB-75) was 9.75 µM (inactive) and the GI50 (SNB-78) was 5.4 µM (inactive). The GI50 (SR) was 2.86 µM (inactive), the GI50 (SW-620) was 3.82 µM (inactive) and the GI50 (T47D) was 5.36 µM (inactive). For the same molecule, the GI50 (TK-10) was 3.72 µM (inactive), the GI50 (U-251) was 10.6 µM (inactive) and the GI50 (UACC-257) was 9.55 µM (inactive). For the same molecule, the GI50 (UACC-62) was 5.78 µM (inactive), the GI50 (UO-31) was 17.6 µM (inactive) and the GI50 (XF498) was 1.73 µM (inactive).

With `O=C(c1ccccc1)[C@H]1Nc2ccc(Cl)cc2[C@H]2CCC[C@@H]12` the GI50 (786-0) was 44.9 µM (inactive), the GI50 (A549) was 42 µM (inactive) and the GI50 (ACHN) was 13.3 µM (inactive). For the same molecule, the GI50 (CAKI-1) was 59.8 µM (inactive), the GI50 (COLO 205) was 25.1 µM (inactive) and the GI50 (DLD-1) was 21.8 µM (inactive). For the same molecule, the GI50 (DMS-114) was 23.6 µM (inactive), the GI50 (DMS-273) was 36.1 µM (inactive) and the GI50 (HCC 2998) was 30.5 µM (inactive). The GI50 (HCT-116) was 13.2 µM (inactive), the GI50 (HCT-15) was 25.1 µM and the GI50 (HOP-18) was 12.3 µM (inactive). For the same molecule, the GI50 (HOP-62) was > 100 µM (inactive), the GI50 (HT-29) was 21 µM (inactive) and the GI50 (IGROV-1) was > 100 µM (inactive). For the same molecule, the GI50 (K562) was 15.4 µM (inactive), the GI50 (KM-20L2) was 26.9 µM (inactive) and the GI50 (KM12) was 49.1 µM (inactive). For the same molecule, the GI50 (LOX IMVI) was 6.85 µM (inactive), the GI50 (LXFL 529) was 17.9 µM (inactive) and the GI50 (M14) was 11.7 µM (inactive). For the same molecule, the GI50 (M19-MEL) was 27.6 µM (inactive), the GI50 (MOLT-4) was 5.7 µM (inactive) and the GI50 (Malme-3M) was 22 µM (inactive). The GI50 (NCI-H226) was 13.6 µM (inactive), the GI50 (NCI-H23) was 23.9 µM (inactive) and the GI50 (NCI-H460) was 24.5 µM (inactive). The GI50 (NCI-H522) was 23.3 µM (inactive), the GI50 (OVCAR-3) was 27.2 µM (inactive) and the GI50 (OVCAR-4) was 26.2 µM (inactive). For the same molecule, the GI50 (OVCAR-5) was 23.7 µM (inactive), the GI50 (OVCAR-8) was 23.3 µM (inactive) and the GI50 (RPMI-8226) was 11.9 µM (inactive). For the same molecule, the GI50 (RXF 393) was 14.8 µM (inactive), the GI50 (RXF 631) was 36.1 µM (inactive) and the GI50 (SF-268) was 31.7 µM (inactive). The GI50 (SF-295) was 32.1 µM (inactive), the GI50 (SF-539) was 33.2 µM (inactive) and the GI50 (SK-MEL-28) was 19.4 µM (inactive). For the same molecule, the GI50 (SK-MEL-2) was 19.7 µM (inactive), the GI50 (SK-MEL-5) was 10.3 µM (inactive) and the GI50 (SN12C) was 14.6 µM (inactive). For the same molecule, the GI50 (SNB-19) was > 100 µM (inactive), the GI50 (SNB-75) was 21.7 µM (inactive) and the GI50 (SNB-78) was 51.3 µM (inactive). The GI50 (SR) was 7.21 µM (inactive), the GI50 (SW-620) was 27.9 µM (inactive) and the GI50 (TK-10) was 30.6 µM (inactive). The GI50 (U-251) was 35.6 µM (inactive), the GI50 (UACC-62) was 25.8 µM (inactive) and the GI50 (UO-31) was 17.8 µM (inactive). The GI50 (XF498) was 17.1 µM (inactive).
